# Measurements: publication PMC12524617, “Recombinant Production and Characterization of a Novel α-L-Fucosidase from Bifidobacterium castoris” (International Journal of Molecular Sciences, 2025)
# Target: T1, commercial T. maritima α-L-fucosidase (Thermotoga maritima, UniProt Q9WYE2)
# T1 construct: gene TM_0306; commercial enzyme from Megazyme
# T1 sequence (Q9WYE2 1-449): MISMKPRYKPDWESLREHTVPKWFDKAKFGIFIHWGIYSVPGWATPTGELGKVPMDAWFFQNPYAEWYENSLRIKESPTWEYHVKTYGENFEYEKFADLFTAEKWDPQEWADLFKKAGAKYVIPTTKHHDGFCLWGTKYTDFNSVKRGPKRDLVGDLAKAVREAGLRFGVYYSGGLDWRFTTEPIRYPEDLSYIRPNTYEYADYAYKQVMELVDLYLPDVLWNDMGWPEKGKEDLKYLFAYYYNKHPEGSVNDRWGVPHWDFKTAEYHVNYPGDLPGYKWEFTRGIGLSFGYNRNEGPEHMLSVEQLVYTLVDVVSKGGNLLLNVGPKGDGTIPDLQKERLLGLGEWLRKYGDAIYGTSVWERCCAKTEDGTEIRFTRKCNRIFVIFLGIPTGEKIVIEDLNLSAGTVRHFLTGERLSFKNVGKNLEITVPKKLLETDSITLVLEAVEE
# Test: p-nitrophenolate release, absorbance at […] nm
# Format: biochemical
# Conditions: positive control enzyme, 1 μg, same conditions, pH 3.0-8.0, 24-42 °C; activity only in figure
compound,measurement,value
"C[C@@H]1O[C@@H](Oc2ccc([N+](=O)[O-])cc2)[C@@H](O)[C@H](O)[C@@H]1O [pNP-Fuc, 4-Nitrophenyl-α-L-fucopyranoside]","p-nitrophenolate release, absorbance at 405 nm",-derived α-L-fucosidase was used as a positive control under the same conditions
